Consider 19 compounds from PubChem BioAssay AID248 (DTP/NCI, 2004).

Molecules are shown by their SMILES. Values joined by “and” are separate entries in the source; they are usually repeats but may differ in a detail not shown here. Equal entries are not always repeated. Toxic doses and inconclusive results are not listed.

The test system of this assay is L1210 leukemia ip in BDF1 mice, survival T/C. Nature of the assay: NCI In Vivo Anticancer Drug Screen. Data for tumor model L1210 Leukemia (intraperitoneal) in B6D2F1 (BDF1) mice. Particulars: endpoint: mean survival time, higher = longer survival. Summed up:
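Survival endpoint. Drug-treated group vs vehicle group, expressed as T divided by C. Tumor passaged by transplantation.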

Setting [1] is: dose: 100.0 mg/kg/injection, schedule: Q01DX009 (ip), vehicle: Klucel (hydroxypropylcellulose) (HPC).
Where [2] appears, read: dose: 100.0 mg/kg/injection, schedule: Q04DX003 (ip), vehicle: Klucel (hydroxypropylcellulose) (HPC).
The mark [3] stands for this setting: dose: 200.0 mg/kg/injection, schedule: Q01DX009 (ip), vehicle: Klucel (hydroxypropylcellulose) (HPC).
The mark [4] stands for this setting: dose: 200.0 mg/kg/injection, schedule: Q04DX003 (ip), vehicle: Klucel (hydroxypropylcellulose) (HPC).
[5] abbreviates: dose: 400.0 mg/kg/injection, schedule: Q01DX009 (ip), vehicle: Klucel (hydroxypropylcellulose) (HPC).
Where [6] appears, read: dose: 400.0 mg/kg/injection, schedule: Q04DX003 (ip), vehicle: Klucel (hydroxypropylcellulose) (HPC).
The mark [7] stands for this setting: dose: 100.0 mg/kg/injection, schedule: Q04DX003 (ip), vehicle: saline.
Setting [8] is: dose: 200.0 mg/kg/injection, schedule: Q04DX003 (ip), vehicle: saline.
The mark [9] stands for this setting: dose: 400.0 mg/kg/injection, schedule: Q04DX003 (ip), vehicle: saline.
Setting [10] is: dose: 100.0 mg/kg/injection, schedule: Q01DX001 (ip), vehicle: saline.
Setting [11] is: dose: 100.0 mg/kg/injection, schedule: Q01DX009 (ip), vehicle: saline with Tween-80.
Setting [12] is: dose: 200.0 mg/kg/injection, schedule: Q01DX009 (ip), vehicle: saline with Tween-80.
The mark [13] stands for this setting: dose: 400.0 mg/kg/injection, schedule: Q01DX001 (ip), vehicle: saline.
Where [14] appears, read: dose: 400.0 mg/kg/injection, schedule: Q01DX009 (ip), vehicle: saline with Tween-80.
Setting [15] is: dose: 100.0 mg/kg/injection, schedule: Q04DX002 (ip), vehicle: Klucel (hydroxypropylcellulose) (HPC).
[16] abbreviates: dose: 200.0 mg/kg/injection, schedule: Q04DX002 (ip), vehicle: Klucel (hydroxypropylcellulose) (HPC).
Setting [17] is: dose: 400.0 mg/kg/injection, schedule: Q04DX002 (ip), vehicle: Klucel (hydroxypropylcellulose) (HPC).

Regarding `CC(C)NC(=O)N(c1ccccc1)c1ccccc1`, the T/C is 104 % of control (dose: 100.0 mg/kg/injection, schedule: Q01DX009 (ip), vehicle: gum acacia); 97 % of control (dose: 100.0 mg/kg/injection, schedule: Q04DX003 (ip), vehicle: gum acacia); 111 % of control (dose: 200.0 mg/kg/injection, schedule: Q01DX009 (ip), vehicle: gum acacia); 100 % of control (dose: 200.0 mg/kg/injection, schedule: Q04DX003 (ip), vehicle: gum acacia); 101 % of control (dose: 400.0 mg/kg/injection, schedule: Q01DX009 (ip), vehicle: gum acacia); 99 % of control (dose: 400.0 mg/kg/injection, schedule: Q04DX003 (ip), vehicle: gum acacia).

For the compound `CCOc1ccc(OCC)c2c1C(=O)c1ccccc1C2=O`, the T/C reads like this: under setting [1], 97 % of control; under setting [2], 95 % of control; under setting [3], 100 % of control; under setting [4], 100 % of control; under setting [5], 97 % of control; under setting [6], 97 % of control.

`O=C(O)CC(Nc1ccc([N+](=O)[O-])cc1[N+](=O)[O-])C(=O)O` (stereo not drawn): the T/C under setting [7] was 96 % of control, the T/C under setting [8] was 100 % of control and the T/C under setting [9] was 120 % of control.

Turning to `CS(=O)(=O)OCCN(CCOS(C)(=O)=O)c1ccc(/C=N/Nc2ccc([N+](=O)[O-])cc2[N+](=O)[O-])cc1`, the T/C reads like this: under setting [10], 92 % of control; under setting [11], 96 % of control; under setting [7], 91 % of control; under setting [12], 91 % of control; under setting [8], 90 % of control; under setting [13], 89 % of control. Also, the T/C under setting [14] was 93 % of control and the T/C under setting [9] was 87 % of control.

Take `O=[N+]([O-])c1ccc2c(c1)OCO2`: the T/C by setting is: under setting [15], 103 % of control; under setting [16], 88 % of control; under setting [17], 94 % of control.

Turning to `O=S(=O)(CCCl)Cc1ccc(Cl)cc1`, the T/C is 104 % of control under setting [15] and 93 % of control under setting [16].

Turning to `O=C(CCCc1ccc(N(CCCl)CCCl)cc1)OCCc1ccccc1`, the T/C (dose: 25.0 mg/kg/injection, schedule: Q04DX002 (ip), vehicle: saline) was 111 % of control; the T/C (dose: 50.0 mg/kg/injection, schedule: Q04DX002 (ip), vehicle: saline) was 114 % of control; the T/C (dose: 100.0 mg/kg/injection, schedule: Q04DX002 (ip), vehicle: saline) was 124 % of control; the T/C (dose: 200.0 mg/kg/injection, schedule: Q04DX002 (ip), vehicle: saline) was 112 % of control and 122 % of control; the T/C (dose: 400.0 mg/kg/injection, schedule: Q04DX002 (ip), vehicle: saline) is 112 % of control.

On to `O=c1c(Br)cocc1Br`, for which the T/C under setting [11] is 92 % of control, the T/C under setting [12] was 97 % of control and the T/C under setting [14] was 102 % of control.

For the compound `CCN1/C(=C/C(C)=C/c2sc3ccccc3[n+]2CC)Sc2ccccc21`, the T/C (dose: 1.25 mg/kg/injection, schedule: Q01DX001 (ip), vehicle: other) was 111 % of control; the T/C (dose: 2.5 mg/kg/injection, schedule: Q01DX001 (ip), vehicle: other) is 97 % of control; the T/C (dose: 5.0 mg/kg/injection, schedule: Q01DX001 (ip), vehicle: other) was 103 % of control; the T/C (dose: 25.0 micrograms/kg/injection, schedule: Q01DX001 (ip), vehicle: saline) was 98 % of control; the T/C (dose: 25.0 micrograms/kg/injection, schedule: Q01DX009 (ip), vehicle: Klucel (hydroxypropylcellulose) (HPC)) was 100 % of control; the T/C (dose: 50.0 micrograms/kg/injection, schedule: Q01DX001 (ip), vehicle: saline) was 93 % of control. For the same compound, the T/C (dose: 50.0 micrograms/kg/injection, schedule: Q01DX009 (ip), vehicle: Klucel (hydroxypropylcellulose) (HPC)) is 101 % of control; the T/C (dose: 100.0 micrograms/kg/injection, schedule: Q01DX001 (ip), vehicle: saline) was 104 % of control; the T/C (dose: 100.0 micrograms/kg/injection, schedule: Q01DX009 (ip), vehicle: Klucel (hydroxypropylcellulose) (HPC)) was 108 % of control; the T/C (dose: 200.0 micrograms/kg/injection, schedule: Q01DX001 (ip), vehicle: saline) was 96 % of control; the T/C (dose: 200.0 micrograms/kg/injection, schedule: Q01DX009 (ip), vehicle: Klucel (hydroxypropylcellulose) (HPC)) is 104 % of control; the T/C (dose: 200.0 micrograms/kg/injection, schedule: Q01DX015 (ip), vehicle: saline) was 105 % of control. Further, for the setting “dose: 400.0 micrograms/kg/injection, schedule: Q01DX009 (ip), vehicle: Klucel (hydroxypropylcellulose) (HPC)”, the T/C is 97 % of control.

For `O=S(=O)(Nc1ccc2ccccc2c1)c1ccc2ccccc2c1`, the T/C by setting is: under setting [2], 91 % of control; under setting [4], 90 % of control; under setting [6], 91 % of control.

Regarding `O=C(O)COc1ccccc1F`, the T/C under setting [15] is 113 % of control, the T/C under setting [16] was 98 % of control and the T/C under setting [17] was 98 % of control.

For the compound `O=C(CC(=O)c1ccccc1)Cc1ccccc1.O=C(CC(=O)c1ccccc1)Cc1ccccc1.[Cu]`, the T/C reads like this: under setting [2], 94 % of control; under setting [4], 97 % of control; under setting [6], 104 % of control.

As to `Nc1cncc2ncc(-c3ccc(Cl)cc3)nc12`, the T/C (dose: 50.0 mg/kg/injection, schedule: Q01DX001 (ip), vehicle: other) was 105 % of control; the T/C (dose: 100.0 mg/kg/injection, schedule: Q01DX001 (ip), vehicle: other) is 100 % of control; the T/C (dose: 200.0 mg/kg/injection, schedule: Q01DX001 (ip), vehicle: other) is 94 % of control; the T/C (dose: 400.0 mg/kg/injection, schedule: Q01DX001 (ip), vehicle: other) is 96 % of control.

For the compound `O=C(CC1(O)C(=O)Nc2ccccc21)CC1(O)C(=O)Nc2ccccc21` (stereo not drawn), the T/C is 110 % of control (dose: 100.0 mg/kg/injection, schedule: Q01DX007 (ip), vehicle: Klucel (hydroxypropylcellulose) (HPC)); 100 % of control under setting [2]; 118 % of control (dose: 200.0 mg/kg/injection, schedule: Q01DX007 (ip), vehicle: Klucel (hydroxypropylcellulose) (HPC)); 97 % of control under setting [4]; 103 % of control (dose: 400.0 mg/kg/injection, schedule: Q01DX007 (ip), vehicle: Klucel (hydroxypropylcellulose) (HPC)); 92 % of control under setting [6].

Consider `OC1C2c3ccccc3C(c3ccccc32)C1O` (stereo not drawn), for which the T/C runs as follows: (dose: 75.0 mg/kg/injection, schedule: Q01DX001 (ip), vehicle: saline) 107 % of control; (dose: 150.0 mg/kg/injection, schedule: Q01DX001 (ip), vehicle: saline) 93 % of control; (dose: 300.0 mg/kg/injection, schedule: Q01DX001 (ip), vehicle: saline) 99 % of control.

`CCOC(=O)COc1ccc(Cl)cc1`: the T/C runs as follows: under setting [1], 97 % of control; under setting [3], 103 % of control; under setting [5], 92 % of control.

For `CC1CN=C(Cc2ccc(NC(=O)c3ccc(C(=O)Nc4ccc(CC5=NCC(C)N5)cc4)cc3)cc2)N1` (stereo not drawn), the T/C was 91 % of control (dose: 3.75 mg/kg/injection, schedule: Q01DX Z (ip), vehicle: water) and 101 % of control (dose: 7.5 mg/kg/injection, schedule: Q01DX Z (ip), vehicle: water).

On to `CC(=O)c1ccc2nc(C)cc(Cl)c2c1`, for which the T/C by setting is: under setting [10], 96 % of control; (dose: 200.0 mg/kg/injection, schedule: Q01DX001 (ip), vehicle: saline) 91 % of control; under setting [13], 96 % of control.

Turning to `C(=C\c1ccccc1)/CSc1ncnc2nc[nH]c12`, the T/C is 106 % of control (dose: 62.5 mg/kg/injection, schedule: Q01DX015 (ip), vehicle: saline); 116 % of control (dose: 125.0 mg/kg/injection, schedule: Q01DX015 (ip), vehicle: saline); 104 % of control (dose: 250.0 mg/kg/injection, schedule: Q01DX015 (ip), vehicle: saline); 166 % of control (dose: 500.0 mg/kg/injection, schedule: Q01DX015 (ip), vehicle: saline).
